Patent US8044186B2, “Heterologous production of capreomycin and generation of new capreomycin derivatives through metabolic engineering” (priority 2007, dated 2011)
Values after ≈ are worked out from the molar mass of the structure shown.

How the values were obtained:
[1] = tested on: E. coli DH5α/pBAD33/pLJ102 (cmnU−, tlyA−); experiment: MIC in E. coli, cmnU not expressed, tlyA not expressed; format: cell-based, Escherichia coli
Excerpt: (§1) Analysis of cmnU in E. coli. The gene cmnU was PCR amplified from pCMN-P4C8RF using the following primers: CmnU-NdeI (5′-[…]-3′) (SEQ ID NO:37) and CmnU-HindIII (5′-[…]-3′) (SEQ ID NO:38). The amplicon was cloned into pCR-BluntII-TOPO according to manufacturer's instructions (Invitrogen), resulting in pCR-BluntII-TOPO-cmnU. The NdeI/HindIII fragment of pCR-Blunt-TOPO-cmnU containing cmnU was subcloned into the corresponding restriction sites of pET22b (Novagen), resulting in pET22b-cmnU. The XbaI/HindIII fragment of pET22b-cmnU containing the optimized ribosome-binding site and cmnU was subcloned into the corresponding sites of pBAD33 (14) resulting in pBAD33-cmnU. This construct results in the expression of cmnU under the control of the arabinose promoter of pBAD33. pBAD33 and pBAD33-cmnU were transformed into DH5α strains containing either pLJ102 (empty vector) or pSJ101 (tlyA inserted into pLJ102 and expression controlled by IPTG induction) (18). Each of these strains was grown in LB medium containing chloramphenicol (15 μg/ml) and ampicillin (100 μg/ml) for plasmid maintenance, isopropyl-beta-D-thiogalactopyranoside (40 μg/ml) and arabinose (2% w/v) for induced expression of tlyA and cmnU, respectively, and varying concentrations of CMN (12.5-100 μg/ml) or kanamycin (6-96 μg/ml). […]

[2] = tested on: E. coli DH5α/pBAD33-cmnU/pLJ102 (cmnU+, tlyA−); experiment: MIC in E. coli expressing cmnU; format: cell-based, Escherichia coli
Excerpt: as §1

[3] = tested on: E. coli DH5α/pBAD33/pSJ101 (cmnU−, tlyA+); experiment: MIC in E. coli expressing tlyA; format: cell-based, Escherichia coli
Excerpt: as §1

[4] = tested on: E. coli DH5α/pBAD33-cmnU/pSJ101 (cmnU+, tlyA+); experiment: MIC in E. coli expressing cmnU and tlyA; format: cell-based, Escherichia coli
Excerpt: as §1

[5] = tested on: St. lividans 1326/pSE34 (cmnU−); experiment: MIC in St. lividans 1326 with empty vector; format: cell-based, Streptomyces lividans
Experimental: (§2) Analysis of cmnU in St. lividans 1326. The XbaI/HindIII fragment of pET22b-cmnU was cloned into the corresponding sites of pSE34 (29) to generate pSE34-cmnU. This vector construct results in the constitutive expression of cmnU when pSE34-cmnU is introduced into St. lividans 1326. pSE34-cmnU and pSE34 were introduced into St. lividans 1326 by transformation, and successful transformants were selected by using an overlay of thiostrepton (8 μg/ml). Transformants were streaked for isolation on ISP2 medium containing thiostrepton. To test for CMN or kanamycin resistance, 10^5 spores of St. lividans 1326 containing either pSE34-cmnU or pSE34 were plated onto ISP2 plates supplemented with CMN (25-1600 μg/ml) or kanamycin (3-1600 μg/ml). The plates were incubated at 30° C. for 2 days, and the minimum inhibitory concentration was defined as the lowest antibiotic concentration at which no growth was observed.

[6] = tested on: St. lividans 1326/pSE34-cmnU (cmnU+); experiment: MIC in St. lividans 1326 expressing cmnU; format: cell-based, Streptomyces lividans
Experimental: as §2

[7] = Escherichia coli, 16 h, read-out: minimum inhibitory concentration (MIC)
[8] = Streptomyces lividans, 48 h, read-out: minimum inhibitory concentration (MIC)

Row | Compound | MIC [1, 7] | MIC [2, 7] | MIC [3, 7] | MIC [4, 7] | MIC [5, 8] | MIC [6, 8] | minimum inhibitory concentration (MIC) ([1]; E. coli DH5α/pBAD33/pLJ102 (cmnU−, tlyA−), lowest concentration with OD650 < 0.1 after 16 hrs at 37° C. in LB medium, three separate experiments) | minimum inhibitory concentration (MIC) ([2]; E. coli DH5α/pBAD33-cmnU/pLJ102 (cmnU+, tlyA−), lowest concentration with OD650 < 0.1 after 16 hrs at 37° C. in LB medium, three separate experiments) | minimum inhibitory concentration (MIC) ([3]; E. coli DH5α/pBAD33/pSJ101 (cmnU−, tlyA+), lowest concentration with OD650 < 0.1 after 16 hrs at 37° C. in LB medium, three separate experiments) | minimum inhibitory concentration (MIC) ([4]; E. coli DH5α/pBAD33-cmnU/pSJ101 (cmnU+, tlyA+), lowest concentration with OD650 < 0.1 after 16 hrs at 37° C. in LB medium, three separate experiments) | minimum inhibitory concentration (MIC) ([5]; St. lividans 1326/pSE34 (cmnU−), lowest concentration with no growth on ISP2 plates after 2 days at 30° C., three separate experiments) | minimum inhibitory concentration (MIC) ([6]; St. lividans 1326/pSE34-cmnU (cmnU+), lowest concentration with no growth on ISP2 plates after 2 days at 30° C., three separate experiments)
1 | NC[C@H]1O[C@H](O[C@H]2[C@H](O)[C@@H](O[C@H]3O[C@H](CO)[C@@H](O)[C@H](N)[C@H]3O)[C@H](N)C[C@@H]2N)[C@H](O)[C@@H](O)[C@@H]1O [Kanamycin, kanamycin] | 12 µg/mL (≈ 24.8 µM) | 96 µg/mL (≈ 198 µM) | 12 µg/mL (≈ 24.8 µM) | 24 µg/mL (≈ 49.5 µM) | 6 µg/mL (≈ 12.4 µM) | > 1600 µg/mL | – | – | – | – | – | –
2 | capreomycin [CMN] | – | – | – | – | – | – | 50 µg/mL | 100 µg/mL | 25 µg/mL | 50 µg/mL | 200 µg/mL | >1600 µg/mL
